Reference: US8283358B2, “N-sulfonamido polycyclic pyrazolyl compounds” (Elan Pharmaceuticals, Inc., priority 2008, dated 2012)

biological target: T1, gamma-secretase (partially purified extract of IMR-32 cell membranes; substrate MBP-C125 Swe fusion protein, cleavage at the Aβ40 site) (Homo sapiens, UniProt P49768); experiment: Gamma-secretase APP enzyme assay (Example A); type: biochemical; conditions: class symbols; assay described in Example A; read-out: γAPP IC50
T1 construct: a partially purified extract of IMR-32 cell membranes as the gamma-secretase enzyme preparation; endogenous in cells; host or cells: IMR-32 cell membranes, partially purified extract
Procedure, shortened: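 IMR-32 membrane extract, solubilised in BigCHAPS with brain lipid (0.53 mg/ml) in Hepes/NaCl, preincubated 30 min at 37° C with inhibitor; MBP-C125 Swe substrate then added, 2 h at 37° C, SDS-quenched. Aβ40 neo-epitope product measured by sandwich ELISA against six-point standard curve.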

Compound | IC50
CO/N=C1\c2[nH]ncc2C2c3cccc(Cl)c3C1N2S(=O)(=O)c1ccc(C(F)(F)F)nc1 (stereo not drawn) [compound 269] | < 100 nM
C=C1c2[nH]ncc2C2c3cccc(Cl)c3C1N2S(=O)(=O)c1ccc(C(F)(F)F)nc1 (stereo not drawn) [compound 272] | < 100 nM
CC12C(=O)c3[nH]ncc3C(c3ccccc31)N2S(=O)(=O)c1ccc(C(F)(F)F)nc1 (stereo not drawn) [compound 275] | < 100 nM
CC12C(=O)c3[nH]ncc3C(c3ccccc31)N2S(=O)(=O)c1ccc(C(F)(F)F)cc1 (stereo not drawn) [compound 277] | < 100 nM

same assay, conditions: numeric bounds given instead of class symbols; assay described in Example A; read-out: γAPP IC50

Compound | IC50
CC12C(=O)c3[nH]ncc3C(c3ccccc31)N2S(=O)(=O)c1ccc(C(F)(F)F)nc1 (stereo not drawn) [compound 276] | > 30 nM

test system: gamma secretase in CHO cells expressing APPSwe, NotchΔE and a Notch responsive luciferase reporter gene (SNC-204B8); experiment: SNC dual cell assay for simultaneous assay of A-beta reduction and Notch signaling (Example D); conditions: ratio of Notch IC50/Aβ EC50 determined as described in Example D (SNC dual cell assay)
Source text: In order to facilitate testing the potency of gamma-secretase inhibitors on two substrates (APP and Notch) simultaneously, a dual-assay using a CHO cell line stably expressing APPSwe, a Notch substrate lacking the ecto-domain, and a Notch responsive Luciferase reporter gene was developed. CHOSwe cells stably over-express the Swedish FAD isoform of APP, and secrete large amounts of Aβ peptide into the conditioned media from endogenous β- and γ-secretase enzyme activity. A Notch intracellular domain (NICD) responsive reporter gene, and the constitutive gamma-secretase Notch substrate, NotchΔE, were stably introduced into CHOSwe cells in a two step process. CHOSwe cells were first stably transfected to express a NICD responsive luciferase reporter gene construct (pGL2-CBF-Luc). […] Stable cell lines expressing rat NotchΔE were then identified in the second step by including a gamma-secretase inhibitor in the selection process (to suppress Notch/NICD toxicity) following transfection of the rat Notch-ΔE construct. […] This vector drives expression of a truncated rat Notch construct corresponding to the c-terminal product following ecto-domain shedding of full length rat Notch protein. The c-terminal product is a constitutive substrate for gamma-secretase cleavage, resulting in release of the cytoplasmic Notch intracellular domain (NICD) product, which translocates to the nucleus and relieves CBF repressed genes. Subsequently, pIRES-ZEDN transfected cells were re-plated at low density in the presence of test compound, and selected with three antibiotics (G418 (0.5 mg/ml)/Hygro (1 mg/ml)/Puro (2.5 mg/ml)). The antibiotic-resistant colonies (named SNC clones for the dual-assay components: APPSwe/NotchΔE/CBF) were isolated and expanded for characterization of Aβ secretion, and NICD responsive reporter gene activity (i.e. luciferase signal in the presence versus absence of test compound). […] A typical dual-assay experiment was performed as follows: Day 1, the SNC cells were plated in 96-well assay plates in inhibitor-free media. Day 2, the cells were fed with fresh media (inhibitor free) and treated with test compounds over a concentration range 0 nM to 40,000 nM (in 10× incremental dilutions) one hour after the media change. The cells were treated with compounds overnight at 37° C. […] For the Notch signaling assay, the cells were lysed and luciferase activity from the lysate was measured using the Promega kit (see below). Day 4, Aβ-ELISA part II was conducted using 3D6-biotin/AP-streptavidin antibodies.

Compound | Selectivity Ratio (Notch IC50/Aβ ED50)
O=S(=O)(c1ccc(C(F)(F)F)cc1)N1C2Cc3[nH]ncc3C1CC(c1csnn1)C2 (racemic) [(±)-6-(1,2,3-thiadiazol-4-yl)-10-{[4-(trifluoromethyl)phenyl]sulfonyl}-4,5,6,7,8,9-hexahydro-1H-4,8-epiminocycloocta[c]pyrazole] | (^++)
O=S(=O)(c1ccc(C(F)(F)F)nc1)N1C2Cc3[nH]ncc3C1CC(c1ccc3c(c1)OCO3)C2 (racemic) [(±)-6-(1,3-benzodioxol-5-yl)-10-{[6-(trifluoromethyl)pyridin-3-yl]sulfonyl}-4,5,6,7,8,9-hexahydro-1H-4,8-epiminocycloocta[c]pyrazole] | (+) ((+) means a ratio from about 50 to about 99)
O=S(=O)(c1ccc(C(F)(F)F)cc1)N1C2Cc3[nH]ncc3C1CC(c1cccc(Br)c1)C2 (racemic) [(±)-6-(3-bromophenyl)-10-{[4-(trifluoromethyl)phenyl]sulfonyl}-4,5,6,7,8,9-hexahydro-1H-4,8-epiminocycloocta[c]pyrazole] | (+) ((+) means a ratio from about 50 to about 99)
O=S(=O)(c1ccc(C(F)(F)F)cc1)N1C2Cc3[nH]ncc3C1CC(c1cccc(-n3cccn3)c1)C2 (racemic) [(±)-6-[3-(1H-pyrazol-1-yl)phenyl]-10-{[4-(trifluoromethyl)phenyl]sulfonyl}-4,5,6,7,8,9-hexahydro-1H-4,8-epiminocycloocta[c]pyrazole] | (+) ((+) means a ratio from about 50 to about 99)
O=S(=O)(c1ccc(C(F)(F)F)cc1)N1C2Cc3[nH]ncc3C1c1cccc(-c3cccc(C(F)(F)F)c3)c1C2 (racemic) [(±)-7-[3-(trifluoromethyl)phenyl]-12-{[4-(trifluoromethyl)phenyl]sulfonyl}-4,5,6,11-tetrahydro-3H-5,11-epiminobenzo[4,5]cycloocta[1,2-c]pyrazole] | (++) ((++) means a ratio from about 100 to about 149)
O=S(=O)(c1ccc(C(F)(F)F)nc1)N1C2Cc3[nH]ncc3C1c1ncc(F)cc12 (racemic) [(±)-7-fluoro-11-{[6-(trifluoromethyl)pyridin-3-yl]sulfonyl}-1,4,9,10-tetrahydro-4,9-epiminopyrazolo[3′,4′: 5,6]cyclohepta[1,2-b]pyridine] | (+) ((+) means a ratio from about 50 to about 99)
Cc1noc(C2CC3Cc4[nH]ncc4C(C2)N3S(=O)(=O)c2ccc(Cl)cc2)n1 (racemic) [(±)-10-[(4-chlorophenyl)sulfonyl]-6-(3-methyl-1,2,4-oxadiazol-5-yl)-4,5,6,7,8,9-hexahydro-1H-4,8-epiminocycloocta[c]pyrazole] | (++++) ((++++) means a ratio of Notch IC50/Aβ EC50 (determined as described in Example D) of >200)
Cc1cc(C2CC3Cc4[nH]ncc4C(C2)N3S(=O)(=O)c2ccc(Cl)cc2)on1 (racemic) [(±)-10-[(4-chlorophenyl)sulfonyl]-6-(3-methylisoxazol-5-yl)-4,5,6,7,8,9-hexahydro-1H-4,8-epiminocycloocta[c]pyrazole] | (++++) ((++++) means a ratio of Notch IC50/Aβ EC50 (determined as described in Example D) of >200)
O=S(=O)(c1ccc(C(F)(F)F)nc1)N1C2Cc3[nH]ncc3C1CC(c1nc(C(F)(F)F)cs1)C2 (racemic) [(±)-10-{[6-(trifluoromethyl)pyridin-3-yl]sulfonyl}-6-[4-(trifluoromethyl)-1,3-thiazol-2-yl]-4,5,6,7,8,9-hexahydro-1H-4,8-epiminocycloocta[c]pyrazole] | (+++) ((+++) means a ratio from about 150 to about 199)
O=S(=O)(c1ccc(C(F)(F)F)nc1)N1C2Cc3[nH]ncc3C1CC(c1ccc(F)cc1)C2 (racemic) [(±)-endo-6-(4-fluorophenyl)-10-{[6-(trifluoromethyl)pyridin-] [(±)-endo-6-(4-fluorophenyl)-10-{[6-(trifluoromethyl)pyridin-3-yl]sulfonyl}-4,5,6,7,8,9-hexahydro-1H-4,8-epiminocycloocta[c]pyrazole] | (++) ((++) means a ratio from about 100 to about 149)
O=S(=O)(c1ccc(C(F)(F)F)nc1)N1C2Cc3[nH]ncc3C1CC(c1ccc(F)cc1)C2 (racemic) [(±)-exo-6-(4-fluorophenyl)-10-{[6-(trifluoromethyl)pyridin-3] [(±)-exo-6-(4-fluorophenyl)-10-{[6-(trifluoromethyl)pyridin-3-yl]sulfonyl}-4,5,6,7,8,9-hexahydro-1H-4,8-epiminocycloocta[c]pyrazole] | (+++) ((+++) means a ratio from about 150 to about 199)
O=S(=O)(c1ccc(C(F)(F)F)cc1)N1C2c3cn[nH]c3C(F)C1c1cccc(F)c12 (single isomer, unassigned; (+)) [(+)-5,10-difluoro-11-{[4-(trifluoromethyl)phenyl]sulfonyl}-1,4,9,10-tetrahydro-4,9-epiminobenzo[4,5]cyclohepta[1,2-c]pyrazole] | (++) ((++) means a ratio from about 100 to about 149)
O=S(=O)(c1ccc(C(F)(F)F)cc1)N1C2c3ccccc3C1C(O)c1[nH]ncc12 (single isomer, unassigned; (+)) [(+)-endo-11-{[4-(trifloromethyl)phenyl]sulfonyl}-1,4,9,10-tetrahydro-4,9-epiminobenzo[4,5]cyclohepta[1,2-c]pyrazol-10-ol] | (+++) ((+++) means a ratio from about 150 to about 199)
O=C1c2[nH]ncc2C2c3c(F)cccc3C1N2S(=O)(=O)c1ccc(C(F)(F)F)nc1 (single isomer, unassigned; (-)) [(−)-5-fluoro-11-{[6-(trifluoromethyl)pyridin-3-yl]sulfonyl}-4,9-dihydro-4,9-epiminobenzo[4,5]cyclohepta[1,2-c]pyrazol-10(1H)-one] | (++++) ((++++) means a ratio of Notch IC50/Aβ EC50 (determined as described in Example D) of >200)
O=S(=O)(c1ccc(C(F)(F)F)nc1)N1C2Cc3[nH]ncc3C1c1cc(Br)ccc12 (single isomer, unassigned; (-)) [(−)-6-bromo-11-{[6-(trifluoromethyl)pyridin-3-yl]sulfonyl}-1,4,9,10-tetrahydro-4,9-epiminobenzo[4,5]cyclohepta[1,2-c]pyrazole] | (+) ((+) means a ratio from about 50 to about 99)
O=C1c2[nH]ncc2C2c3cccc(F)c3C1N2S(=O)(=O)c1ccc(C(F)(F)F)nc1 (single isomer, unassigned; (-)) [(−)-8-fluoro-11-{[6-(trifluoromethyl)pyridin-3-yl]sulfonyl}-4,9-dihydro-4,9-epiminobenzo[4,5]cyclohepta[1,2-c]pyrazol-10(1H)-one] | (++++) ((++++) means a ratio of Notch IC50/Aβ EC50 (determined as described in Example D) of >200)
